Assay results taken from patent US9938261B2, “Heterocyclic compounds and methods of use thereof” (AMBIT BIOSCIENCES CORPORATION, priority 2011, dated 2018).

Legend:
[1] = target: T1, FLT3 (Homo sapiens, UniProt P36888); experiment: Competition binding assay, FLT3 Kd; details: competition binding
T1 construct: made in house
T1 sequence (P36888 27-993): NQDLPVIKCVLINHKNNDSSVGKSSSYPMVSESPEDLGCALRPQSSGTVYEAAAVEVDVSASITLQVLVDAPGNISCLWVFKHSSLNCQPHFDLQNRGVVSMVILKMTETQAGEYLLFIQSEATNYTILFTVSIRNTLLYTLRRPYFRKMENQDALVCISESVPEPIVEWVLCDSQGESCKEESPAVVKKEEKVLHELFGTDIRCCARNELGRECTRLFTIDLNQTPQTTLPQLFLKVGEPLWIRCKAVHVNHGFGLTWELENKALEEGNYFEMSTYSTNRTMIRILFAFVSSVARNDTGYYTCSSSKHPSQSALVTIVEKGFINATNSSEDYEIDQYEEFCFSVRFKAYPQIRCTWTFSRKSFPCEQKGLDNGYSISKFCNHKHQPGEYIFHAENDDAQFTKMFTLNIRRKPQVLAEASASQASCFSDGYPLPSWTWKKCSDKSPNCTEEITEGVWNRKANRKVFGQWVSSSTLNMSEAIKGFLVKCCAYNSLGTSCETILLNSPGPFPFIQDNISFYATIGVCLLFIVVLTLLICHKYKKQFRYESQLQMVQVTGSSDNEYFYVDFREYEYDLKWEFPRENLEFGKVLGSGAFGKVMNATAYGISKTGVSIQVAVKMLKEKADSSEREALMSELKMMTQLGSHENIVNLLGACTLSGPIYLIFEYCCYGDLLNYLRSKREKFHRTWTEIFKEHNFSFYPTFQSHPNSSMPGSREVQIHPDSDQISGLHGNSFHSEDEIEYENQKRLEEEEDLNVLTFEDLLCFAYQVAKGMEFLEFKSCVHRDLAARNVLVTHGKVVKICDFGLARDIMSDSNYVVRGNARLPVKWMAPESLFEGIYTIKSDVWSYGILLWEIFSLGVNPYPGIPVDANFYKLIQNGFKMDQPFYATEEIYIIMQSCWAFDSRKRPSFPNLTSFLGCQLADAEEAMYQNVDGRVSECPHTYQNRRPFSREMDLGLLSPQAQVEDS
Procedure, shortened: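 First, biotinylated affinity ligands were loaded onto streptavidin magnetic beads and blocked. Kinase, beads and compound were then equilibrated 1 hour at room temperature, washed, and eluted with non-biotinylated ligand. Eluted kinase was measured by qPCR, with Kd fitted from an eleven-point threefold dilution series.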

[2] = test system: M-NFS-60 cells; experiment: M-NFS-60 cell proliferation assay (Alamar Blue); format: cell-based, mouse; details: Mus musculus; M-NFS-60 cell proliferation; read-out: CSF1R M-NFS-60 CTB:IC50
Procedure, shortened: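 Mouse M-NFS-60 cells growing on 20 ng/mL M-CSF in RPMI/10% FBS were exposed to compounds (9 half-log concentrations, 0.5% DMSO) for 72 h at 37 °C. Viability read by Alamar Blue fluorescence (ex 560/em 590 nm, 3 h). IC50 = 50% proliferation inhibition versus control, mean of duplicates.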

| SMILES | Kd [1] | IC50 [2] |
| --- | --- | --- |
| N#Cc1ccc2c(c1)ncn2Cc1ccc2nc(N[C@@H]3CCCC[C@H]3O)sc2c1 [Example 108, 1-((2-(((1R,2R)-2-hydroxycyclohexyl)amino)benzo[d]thiazol-6-yl)methyl)-1H-benzo[d]imidazole-5-carbonitrile] | > 5000 nM | 50 to 400 nM |
| CC(C)(O)c1cnc2c(c1)ncn2Cc1ccc2nc(N[C@@H]3CCCC[C@H]3O)sc2c1 [Example 109, (1R,2R)-2-((6-((6-(2-hydroxypropan-2-yl)-3H-imidazo[4,5-b]pyridin-3-yl)methyl)benzo[d]thiazol-2-yl)amino)cyclohexanol] | 1000 to 5000 nM | 50 to 400 nM |
| CC(=O)c1ccc2c(c1)ncn2Cc1ccc2nc(N[C@@H]3CCCC[C@H]3O)sc2c1 [Example 110, 1-(1-((2-(((1R,2R)-2-hydroxycyclohexyl)amino)benzo[d]thiazol-6-yl)methyl)-1H-benzo[d]imidazol-5-yl)ethanone] | 1000 to 5000 nM | 50 to 400 nM |
| N#Cc1ccc2ncn(Cc3ccc4nc(N[C@@H]5CCCC[C@H]5O)sc4c3)c2c1 [Example 111, 1-((2-(((1R,2R)-2-hydroxycyclohexyl)amino)benzo[d]thiazol-6-yl)methyl)-1H-benzo[d]imidazole-6-carbonitrile] | 1000 to 5000 nM | 50 to 400 nM |
| CS(=O)(=O)c1ccc2c(c1)ncn2Cc1ccc2nc(N[C@@H]3CCCC[C@H]3O)sc2c1 [Example 112, (1R,2R)-2-((6-((5-(methylsulfonyl)-1H-benzo[d]imidazol-1-yl)methyl)benzo[d]thiazol-2-yl)amino)cyclohexanol] | 1000 to 5000 nM | > 1500 nM |
| CS(=O)(=O)c1ccc2ncn(Cc3ccc4nc(N[C@@H]5CCCC[C@H]5O)sc4c3)c2c1 [Example 113, (1R,2R)-2-((6-((6-(methylsulfonyl)-1H-benzo[d]imidazol-1-yl)methyl)benzo[d]thiazol-2-yl)amino)cyclohexanol] | 1000 to 5000 nM | > 1500 nM |
| O[C@@H]1CCCC[C@H]1Nc1nc2ncc(Cn3cnc4cccnc43)cc2s1 [Example 114, (1R,2R)-2-((6-((3H-imidazo[4,5-b]pyridine-3-yl)methyl)thiazolo[4,5-b]pyridine-2-yl)amino)cyclohexanol] | 1000 to 5000 nM | > 1500 nM |
| CC(O)c1cnc2c(c1)ncn2Cc1ccc2nc(N[C@@H]3CCCC[C@H]3O)sc2c1 (stereo partly drawn) [Example 115, (1R,2R)-2-((6-((6-((R,S)-1-hydroxyethyl)-3H-imidazo[4,5-b]pyridin-3-yl)methyl)benzo[d]thiazol-2-yl)amino)cyclohexanol] | 1000 to 5000 nM | 50 to 400 nM |
| N#Cc1ccn2c(Cc3ccc4nc(N[C@@H]5CCCC[C@H]5O)sc4c3)cnc2c1 [Example 117, 3-((2-(((1R,2R)-2-hydroxycyclohexyl)amino)benzo[d]thiazol-6-yl)methyl)imidazo[1,2-a]pyridine-7-carbonitrile] | > 5000 nM | 400 to 1500 nM |
| O[C@@H]1CCCC[C@H]1Nc1nc2ccc(Cn3cnc4cncnc43)cc2o1 [Example 118, (1R,2R)-2-((6-((9H-purin-9-yl)methyl)benzo[d]oxazol-2-yl)amino)cyclohexanol] | 1000 to 5000 nM | 400 to 1500 nM |
| Cc1cc2ncn(Cc3ccc4nc(N[C@@H]5CCCC[C@H]5O)sc4c3)c2cc1C [Example 119, (1R,2R)-2-((6-((5,6-dimethyl-1H-benzo[d]imidazol-1-yl)methyl)benzo[d]thiazol-2-yl)amino)cyclohexanol] | 200 to 1000 nM | 50 to 400 nM |
| CC(=O)c1ccc2ncn(Cc3ccc4nc(N[C@@H]5CCCC[C@H]5O)sc4c3)c2c1 [Example 120, 1-(1-((2-(((1R,2R)-2-hydroxycyclohexyl)amino)benzo[d]thiazol-6-yl)methyl)-1H-benzo[d]imidazol-6-yl)ethanone] | 1000 to 5000 nM | 50 to 400 nM |
| C#Cc1ccc2c(c1)ncn2Cc1ccc2nc(N[C@@H]3CCCC[C@H]3O)sc2c1 [Example 121, (1R,2R)-2-((6-((5-ethynyl-1H-benzo[d]imidazol-1-yl)methyl)benzo[d]thiazol-2-yl)amino)cyclohexanol] | 1000 to 5000 nM | 50 to 400 nM |
| C#Cc1ccc2ncn(Cc3ccc4nc(N[C@@H]5CCCC[C@H]5O)sc4c3)c2c1 [Example 122, (1R,2R)-2-((6-((6-ethynyl-1H-benzo[d]imidazol-1-yl)methyl)benzo[d]thiazol-2-yl)amino)cyclohexanol] | 200 to 1000 nM | 50 to 400 nM |
| COc1nc2c(cc1Br)ncn2Cc1ccc2nc(N[C@@H]3CCCC[C@H]3O)sc2c1 [Example 123, (1R,2R)-2-((6-((6-bromo-5-methoxy-3H-imidazo[4,5-b]pyridin-3-yl)methyl)benzo[d]thiazol-2-yl)amino)cyclohexanol] | 200 to 1000 nM | 50 to 400 nM |
| N#Cc1cnc2c(c1)ncn2Cc1ccc2nc(N[C@@H]3CCCC[C@H]3O)oc2c1 [Example 124, 3-((2-(((1R,2R)-2-hydroxycyclohexyl)amino)benzo[d]oxazol-6-yl)methyl)-3H-imidazo[4,5-b]pyridine-6-carbonitrile] | 200 to 1000 nM | 50 to 400 nM |
| O[C@@H]1CCCC[C@H]1Nc1nc2ccc(Cc3cnc4cnccn34)cc2s1 [Example 125, (1R,2R)-2-((6-(imidazo[1,2-a]pyrazin-3-ylmethyl)benzo[d]thiazol-2-yl)amino)cyclohexanol] | 1000 to 5000 nM | 400 to 1500 nM |
| COc1nc2c(cc1C#N)ncn2Cc1ccc2nc(N[C@@H]3CCCC[C@H]3O)sc2c1 [Example 126, 3-((2-(((1R,2R)-2-hydroxycyclohexyl)amino)benzo[d]thiazol-6-yl)methyl)-5-methoxy-3H-imidazo[4,5-b]pyridine-6-carbonitrile] | 200 to 1000 nM | 50 to 400 nM |
| Cc1ccc2c(c1)ncn2Cc1ccc2nc(N[C@@H]3CCCC[C@H]3O)sc2c1 [Example 127, (1R,2R)-2-((6-((5-methyl-1H-benzo[d]imidazol-1-yl)methyl)benzo[d]thiazol-2-yl)amino)cyclohexanol] | 1000 to 5000 nM | 50 to 400 nM |
| O[C@@H]1CCCC[C@H]1Nc1nc2ccc(Cn3cnc4cc(F)c(F)cc43)cc2s1 [Example 128, (1R,2R)-2-((6-((5,6-difluoro-1H-benzo[d]imidazol-1-yl)methyl)benzo[d]thiazol-2-yl)amino)cyclohexanol] | > 5000 nM | 400 to 1500 nM |
| O[C@@H]1CCCC[C@H]1Nc1nc2ccc(Cn3cnc4cc(F)ccc43)cc2s1 [Example 129, (1R,2R)-2-((6-((5-fluoro-1H-benzo[d]imidazol-1-yl)methyl)benzo[d]thiazol-2-yl)amino)cyclohexanol] | 1000 to 5000 nM | 50 to 400 nM |
| O[C@@H]1CCCC[C@H]1Nc1nc2ccc(Cn3cnc4cc(C(F)(F)F)ccc43)cc2s1 [Example 130, (1R,2R)-2-((6-((5-(trifluoromethyl)-1H-benzo[d]imidazol-1-yl)methyl)benzo[d]thiazol-2-yl)amino)cyclohexanol] | 1000 to 5000 nM | 50 to 400 nM |
| O[C@@H]1CCCC[C@H]1Nc1nc2ccc(Cc3cnc4cccnn34)cc2s1 [Example 131, (1R,2R)-2-((6-(imidazo[1,2-b]pyridazin-3-ylmethyl)benzo[d]thiazol-2-yl)amino)cyclohexanol] | ≤ 200 nM | ≤ 50 nM |
| O[C@@H]1CCCC[C@H]1Nc1nc2ccc(Cn3cnc4cc(F)cnc43)cc2o1 [Example 132, (1R,2R)-2-((6-((6-fluoro-3H-imidazo[4,5-b]pyridin-3-yl)methyl)benzo[d]oxazol-2-yl)amino)cyclohexanol] | ≤ 200 nM | 50 to 400 nM |
| OC[C@@H]1CCCC[C@H]1Nc1nc2ccc(Cn3cnc4cc(Br)cnc43)cc2s1 [Example 133, ((1R,2R)-2-((6-((6-bromo-3H-imidazo[4,5-b]pyridin-3-yl)methyl)benzo[d]thiazol-2-yl)amino)cyclohexyl)methanol] | 1000 to 5000 nM | 50 to 400 nM |
| Cn1nnnc1-c1cnc2c(c1)ncn2Cc1ccc2nc(N[C@@H]3CCCC[C@H]3O)sc2c1 [Example 134, (1R,2R)-2-((6-((6-(1-methyl-1H-tetrazol-5-yl)-3H-imidazo[4,5-b]pyridin-3-yl)methyl)benzo[d]thiazol-2-yl)amino)cyclohexanol] | 200 to 1000 nM | 50 to 400 nM |
